Columns and labels:
[1] = AUC (0 to infinity) in rat at 3 mg/kg, iv; type: ADME, organism-based; design: time infinity, dose 3 mg/kg, route iv; conditions: in vivo
[2] = Tmax in rat brain at 3 mg/kg, ip; type: ADME, organism-based
[3] = MRT in rat at 3 mg/kg, iv; type: ADME, organism-based; conditions: in vivo
Cytochrome P450 2D6 = Cytochrome P450 2D6 (Homo sapiens, UniProt P10635); experiment: Inhibition of CYP2D6 in human liver microsomes using cocktail of isoform-specific probe substrate; type: ADME, Microsome
Cytochrome P450 2D6, sequence (P10635 whole entry, canonical isoform): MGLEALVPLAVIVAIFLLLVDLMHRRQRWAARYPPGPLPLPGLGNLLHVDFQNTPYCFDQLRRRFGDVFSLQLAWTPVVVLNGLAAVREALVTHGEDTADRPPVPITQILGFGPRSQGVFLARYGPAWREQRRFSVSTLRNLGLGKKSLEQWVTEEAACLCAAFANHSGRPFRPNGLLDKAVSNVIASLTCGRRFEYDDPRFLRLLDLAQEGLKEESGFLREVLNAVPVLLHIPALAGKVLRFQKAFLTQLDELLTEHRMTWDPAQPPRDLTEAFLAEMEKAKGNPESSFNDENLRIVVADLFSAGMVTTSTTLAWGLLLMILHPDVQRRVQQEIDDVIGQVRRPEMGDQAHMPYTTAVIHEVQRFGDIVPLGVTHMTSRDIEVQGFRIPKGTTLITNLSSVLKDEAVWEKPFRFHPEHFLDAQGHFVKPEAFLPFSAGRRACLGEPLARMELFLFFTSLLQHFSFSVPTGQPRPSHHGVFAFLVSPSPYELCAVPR

[4] = target: T1, Muscarinic acetylcholine receptor M2 (Homo sapiens, UniProt P08172); experiment: Inhibition of human muscarinic acetylcholine M2 receptor expressed in CHO cells co-expressing Gqi5 preincubated with compound followed by acetylcholine addition at EC80 concentration by calcium mobilization assay; type: functional, cell-based
T1 sequence (P08172 whole entry): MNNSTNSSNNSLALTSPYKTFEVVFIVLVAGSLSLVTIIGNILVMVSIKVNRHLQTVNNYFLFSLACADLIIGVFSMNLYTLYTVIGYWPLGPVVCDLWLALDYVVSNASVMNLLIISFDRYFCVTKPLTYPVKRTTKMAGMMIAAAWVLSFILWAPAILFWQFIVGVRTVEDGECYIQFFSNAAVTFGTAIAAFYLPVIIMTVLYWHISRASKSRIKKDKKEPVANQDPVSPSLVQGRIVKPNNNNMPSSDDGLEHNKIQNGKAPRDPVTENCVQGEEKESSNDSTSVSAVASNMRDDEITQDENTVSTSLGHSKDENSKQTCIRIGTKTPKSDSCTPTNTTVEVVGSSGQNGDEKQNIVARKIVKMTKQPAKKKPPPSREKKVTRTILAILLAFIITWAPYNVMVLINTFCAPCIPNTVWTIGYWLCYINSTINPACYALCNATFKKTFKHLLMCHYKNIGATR

[5] = Ratio of AUC (0.25 to last) in mouse brain to plasma at 3 mg/kg, ip; type: ADME, organism-based; conditions: read-out: Ratio AUC
[6] = target: T2, Muscarinic acetylcholine receptor M5 (Rattus norvegicus, UniProt P08911); experiment: Inhibition of rat muscarinic acetylcholine M5 receptor expressed in CHO cells co-expressing Gqi5 preincubated with compound followed by acetylcholine addition at EC80 concentration by calcium mobilization assay; type: functional, cell-based
T2 sequence (P08911 whole entry): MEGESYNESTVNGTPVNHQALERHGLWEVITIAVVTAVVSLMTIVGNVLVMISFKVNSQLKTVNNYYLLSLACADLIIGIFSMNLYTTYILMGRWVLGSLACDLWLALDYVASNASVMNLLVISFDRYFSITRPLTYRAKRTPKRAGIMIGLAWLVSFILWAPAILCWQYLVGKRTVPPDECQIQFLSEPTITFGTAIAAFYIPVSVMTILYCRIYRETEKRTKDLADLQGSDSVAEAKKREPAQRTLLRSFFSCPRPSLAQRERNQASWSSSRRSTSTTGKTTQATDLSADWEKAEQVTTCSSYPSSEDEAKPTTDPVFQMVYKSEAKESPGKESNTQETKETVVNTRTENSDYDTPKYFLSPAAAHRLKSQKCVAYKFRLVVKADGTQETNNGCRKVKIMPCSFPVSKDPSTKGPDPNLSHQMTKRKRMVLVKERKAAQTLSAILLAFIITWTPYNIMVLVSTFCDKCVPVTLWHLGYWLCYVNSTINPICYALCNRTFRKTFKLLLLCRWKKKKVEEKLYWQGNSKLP

[7] = Tmax in rat plasma at 3 mg/kg, ip; type: ADME, organism-based
[8] = AUC (0 to last) in rat at 3 mg/kg, iv; type: ADME, organism-based; design: time 0 - last, dose 3 mg/kg, route iv; conditions: in vivo
[9] = Cmax in mouse plasma at 3 mg/kg, ip; type: ADME, organism-based; design: dose 3 mg/kg, route ip
[10] = Unbound Cmax in rat plasma at 3 mg/kg, ip; type: ADME, organism-based; conditions: in vivo
Cytochrome P450 3A4 = Cytochrome P450 3A4 (Homo sapiens, UniProt P08684); experiment: Inhibition of CYP3A4 in human liver microsomes using cocktail of isoform-specific probe substrate; type: ADME, Microsome
Cytochrome P450 3A4, sequence (P08684 whole entry, canonical isoform): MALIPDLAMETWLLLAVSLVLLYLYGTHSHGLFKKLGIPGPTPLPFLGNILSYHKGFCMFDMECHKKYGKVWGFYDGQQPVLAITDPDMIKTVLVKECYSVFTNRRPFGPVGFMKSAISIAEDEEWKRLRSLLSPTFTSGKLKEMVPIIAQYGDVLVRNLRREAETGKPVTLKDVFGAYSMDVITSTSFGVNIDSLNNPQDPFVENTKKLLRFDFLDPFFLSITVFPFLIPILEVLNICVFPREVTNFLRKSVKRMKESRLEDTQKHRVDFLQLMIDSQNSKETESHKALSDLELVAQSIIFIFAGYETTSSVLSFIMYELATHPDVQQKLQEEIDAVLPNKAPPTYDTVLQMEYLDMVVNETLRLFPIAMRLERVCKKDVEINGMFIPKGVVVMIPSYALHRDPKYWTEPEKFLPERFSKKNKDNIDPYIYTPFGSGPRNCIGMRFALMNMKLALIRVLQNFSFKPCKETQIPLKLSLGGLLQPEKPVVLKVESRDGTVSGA

[11] = target: T3, Muscarinic acetylcholine receptor M4 (Homo sapiens, UniProt P08173); experiment: Inhibition of human muscarinic acetylcholine M4 receptor expressed in CHO cells co-expressing Gqi5 in the presence of acetylcholine at EC80 concentration by calcium mobilization assay; type: functional, cell-based
T3 sequence (P08173 whole entry): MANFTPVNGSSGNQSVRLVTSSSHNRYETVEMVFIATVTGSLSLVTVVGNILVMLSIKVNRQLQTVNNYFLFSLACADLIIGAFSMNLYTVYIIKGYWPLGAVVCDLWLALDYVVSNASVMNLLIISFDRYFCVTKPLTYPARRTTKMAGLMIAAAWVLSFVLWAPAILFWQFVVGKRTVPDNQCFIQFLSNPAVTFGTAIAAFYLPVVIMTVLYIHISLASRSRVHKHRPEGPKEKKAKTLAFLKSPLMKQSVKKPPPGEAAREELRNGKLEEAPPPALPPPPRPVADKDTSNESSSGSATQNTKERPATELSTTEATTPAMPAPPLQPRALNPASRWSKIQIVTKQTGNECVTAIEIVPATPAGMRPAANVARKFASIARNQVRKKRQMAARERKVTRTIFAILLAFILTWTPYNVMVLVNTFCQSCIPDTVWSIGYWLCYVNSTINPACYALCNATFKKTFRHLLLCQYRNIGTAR

[12] = AUC (0.25 to last) in rat brain at 3 mg/kg, ip; type: ADME, organism-based; conditions: in vivo
[13] = target: T4, Muscarinic acetylcholine receptor M2 (Rattus norvegicus, UniProt P10980); experiment: Inhibition of rat muscarinic acetylcholine M2 receptor expressed in CHO cells co-expressing Gqi5 preincubated with compound followed by acetylcholine addition at EC80 concentration by calcium mobilization assay; type: functional, cell-based
T4 sequence (P10980 whole entry): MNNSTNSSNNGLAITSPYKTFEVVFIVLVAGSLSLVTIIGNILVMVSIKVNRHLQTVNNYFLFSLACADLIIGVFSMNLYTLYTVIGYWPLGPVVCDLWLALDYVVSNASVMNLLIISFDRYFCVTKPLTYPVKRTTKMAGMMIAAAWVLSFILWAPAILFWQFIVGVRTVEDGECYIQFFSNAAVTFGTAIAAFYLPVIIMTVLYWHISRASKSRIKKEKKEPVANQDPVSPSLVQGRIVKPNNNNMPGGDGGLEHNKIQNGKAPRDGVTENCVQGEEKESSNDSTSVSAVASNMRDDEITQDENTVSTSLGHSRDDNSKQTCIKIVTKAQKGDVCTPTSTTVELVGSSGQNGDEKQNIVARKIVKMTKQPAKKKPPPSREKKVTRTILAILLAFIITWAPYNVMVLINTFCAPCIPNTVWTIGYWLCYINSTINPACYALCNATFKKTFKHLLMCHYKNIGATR

[14] = Intrinsic clearance in rat liver microsomes; type: ADME, Microsome; conditions: read-out: CLH
[15] = Ratio of AUC (0.25 to last) in rat brain to plasma at 3 mg/kg, ip; type: ADME, organism-based; conditions: read-out: Ratio AUC
[16] = target: Muscarinic acetylcholine receptor M3 (Rattus norvegicus, UniProt P08483); experiment: Inhibition of rat muscarinic acetylcholine M3 receptor expressed in CHO cells co-expressing Gqi5 preincubated with compound followed by acetylcholine addition at EC80 concentration by calcium mobilization assay; type: functional, cell-based
Muscarinic acetylcholine receptor M3, sequence (P08483 whole entry): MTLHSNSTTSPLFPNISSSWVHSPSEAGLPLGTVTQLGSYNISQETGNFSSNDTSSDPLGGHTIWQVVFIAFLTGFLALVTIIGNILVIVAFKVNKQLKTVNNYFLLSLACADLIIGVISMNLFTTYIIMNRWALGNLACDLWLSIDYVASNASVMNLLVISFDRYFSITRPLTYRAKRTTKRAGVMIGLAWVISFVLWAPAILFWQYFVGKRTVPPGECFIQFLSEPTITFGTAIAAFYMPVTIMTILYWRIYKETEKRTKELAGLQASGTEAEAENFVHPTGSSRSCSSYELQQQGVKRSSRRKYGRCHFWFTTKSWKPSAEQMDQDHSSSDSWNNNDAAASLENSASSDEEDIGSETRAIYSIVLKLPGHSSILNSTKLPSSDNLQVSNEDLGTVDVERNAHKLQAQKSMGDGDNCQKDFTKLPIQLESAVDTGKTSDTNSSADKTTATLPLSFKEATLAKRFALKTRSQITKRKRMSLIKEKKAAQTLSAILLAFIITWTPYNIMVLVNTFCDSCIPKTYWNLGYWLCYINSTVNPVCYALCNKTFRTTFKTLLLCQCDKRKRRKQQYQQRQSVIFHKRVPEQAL

[17] = Elimination half life in rat at 3 mg/kg, iv; type: ADME, organism-based; conditions: in vivo, read-out: beta t1/2 (converted)
[18] = Cmax in rat plasma at 3 mg/kg, ip; type: ADME, organism-based; design: dose 3 mg/kg, route ip

AUC(0-inf) [1]: 202 ng·h/mL | Tmax [2]: 2 h | MRT [3]: 9.33 h | IC50 (Cytochrome P450 2D6): > 30 µM | IC50 [4]: > 10 µM | Kp [5]: 0.38 | IC50 [6]: > 10 µM | Tmax [7]: 15 min | AUC(0-t) [8]: 181 ng·h/mL | Cmax [9]: 6870 ng/mL | fCmax [10]: 1656 ng/mL | IC50 (Cytochrome P450 3A4): > 30 µM | IC50 [11]: 71 nM | AUClast [12]: 2180 ng·h/g | IC50 [13]: > 10 µM | CLint scaled [14]: 6.2 mL/min/kg | Kp [15]: 0.23 | IC50 [16]: > 10 µM | half-life [17]: 516 min | Cmax [18]: 6700 ng/mL
Structure (SMILES): CC(=O)Nc1ccc(-c2ccc(NC[C@@H]3CC34CCN(CC3CCOCC3)CC4)nn2)cc1

Reference: ChEMBL document CHEMBL5131409, “Synthesis and characterization of chiral 6-azaspiro[2.5]octanes as potent and selective antagonists of the M4 muscarinic acetylcholine receptor” (Bioorg Med Chem Lett, 2022)
